The values below come from patent US20240158348A1, “HERBICIDAL CYCLIC AMIDES N-SUBSTITUTED WITH A HALOALKYLSULFONYLANILIDE GROUP” (FMC Corporation, priority 2021, published 2024).

Holding throughout (type): in vivo
Assay [1] relates to pigweed, palmer (palmer amaranth, Amaranthus palmeri). The assay is described as follows: Test C postemergence, palmer amaranth. The conditions noted are these: visual injury, 0 to 100 scale (0 no effect, 100 complete control). The essentials: (§1)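 Visual injury rating, 0 (no effect) to 100 (complete control), versus untreated controls after 10 or 12 days in the greenhouse. Compounds were formulated in non-phytotoxic solvent plus surfactant and applied either as a directed soil spray at sowing or onto emerged one- to two-leaf plants.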

Assay [2] relates to goosegrass (Eleusine indica). The assay is described as follows: Test C postemergence, goosegrass. As to conditions: visual injury, 0 to 100 scale (0 no effect, 100 complete control). In a few lines:
as §1

In assay [3] the test system is oat, wild (wild oat, Avena fatua). The assay is described as follows: Test C preemergence, wild oat. As to conditions: 0 is no effect, 100 is complete control. In a few lines: as §1
Assay [4] has as its system foxtail, giant (giant foxtail, Setaria faberi). The assay is described as follows: Test C postemergence, giant foxtail. As to conditions: visual injury, 0 to 100 scale (0 no effect, 100 complete control).
In assay [5] the test system is wheat (Triticum aestivum). The assay is described as follows: Test C preemergence, wheat. The conditions noted are these: 0 is no effect, 100 is complete control.
The subject of assay [6] is goosegrass (Eleusine indica). The assay is described as follows: Test C preemergence, goosegrass. The conditions noted are these: 0 is no effect, 100 is complete control. The essentials:
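Ratings run from 0, meaning no effect, up to 100, meaning complete control, judged by eye against untreated plants. Treatment was a directed soil spray before emergence or a postemergence spray on 2–10 cm seedlings, with evaluation 10 or 12 days later.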

The next assay relates to kochia (Bassia scoparia). The assay is described as follows: Test C postemergence, kochia. The conditions noted are these: visual injury, 0 to 100 scale (0 no effect, 100 complete control). In a few lines:
as §1

With `Cc1cc(C)c(N(COC(=O)C(C)(C)C)S(=O)(=O)C(F)(F)F)cc1N1CCC(OCC2CCC2)C1=O` (centres unmarked) [Compound 56], the “Pigweed, Palmer plant response rating” value in assay [1] (31 g ai/ha Postemergence) was 0; in assay [1] (125 g ai/ha Postemergence), 40. In addition, the “Goosegrass plant response rating” value amounted to 0 in assay [2] (31 g ai/ha Postemergence) and 60 in assay [2] (125 g ai/ha Postemergence). In addition, the “Plant response rating (0 to 100 scale), Oat, Wild” value (from here on “Plant response rating … Wild”) in assay [3] (31 g ai/ha Preemergence) and in assay [3] (125 g ai/ha Preemergence) was 0 in each case. The “Foxtail, Giant plant response rating” value is reported as 10 in assay [4] (31 g ai/ha Postemergence) and 40 in assay [4] (125 g ai/ha Postemergence). Besides, the “Plant response rating (0 to 100 scale), Wheat” value (shortened to “Plant response rating … Wheat”) in assay [5] (31 g ai/ha Preemergence) and in assay [5] (125 g ai/ha Preemergence) was 0 each time. For the same compound, the “Plant response rating (0 to 100 scale), Goosegrass” value is 10 in assay [6] (31 g ai/ha Preemergence) and 90 in assay [6] (125 g ai/ha Preemergence). In addition, the “Kochia plant response rating” value with kochia (Bassia scoparia) (31 g ai/ha Postemergence) came out at 0; with kochia (Bassia scoparia) (125 g ai/ha Postemergence), 30.
For `Cc1cc(C)c(N2CCC(OCC3CCCC3)C2=O)cc1NS(=O)(=O)C(F)(F)F` (centres unmarked) [Compound 57], the “Pigweed, Palmer plant response rating” value came to 40 in assay [1] (31 g ai/ha Postemergence) and 70 in assay [1] (125 g ai/ha Postemergence). Also, the “Goosegrass plant response rating” value was 70 in assay [2] (31 g ai/ha Postemergence) and 90 in assay [2] (125 g ai/ha Postemergence). Moreover, the figures for the “Plant response rating … Wild” value in assay [3] (31 g ai/ha Preemergence) and in assay [3] (125 g ai/ha Preemergence) were 20 and 80, respectively. Moreover, the “Foxtail, Giant plant response rating” value in assay [4] (31 g ai/ha Postemergence) came to 60; in assay [4] (125 g ai/ha Postemergence), 70. Besides, the “Plant response rating … Wheat” value amounted to 20 in assay [5] (31 g ai/ha Preemergence) and 80 in assay [5] (125 g ai/ha Preemergence). In addition, the “Plant response rating (0 to 100 scale), Goosegrass” value is listed as 90 in assay [6] (31 g ai/ha Preemergence) and 100 in assay [6] (125 g ai/ha Preemergence). In addition, the “Kochia plant response rating” value with kochia (Bassia scoparia) (31 g ai/ha Postemergence) was 50; in the assay with kochia (Bassia scoparia) (125 g ai/ha Postemergence), 70.
With `C=C(C)COC1CCN(c2cc(NS(=O)(=O)C(F)(F)F)c(C)cc2C)C1=O` (centres unmarked) [Compound 59], the “Pigweed, Palmer plant response rating” value in assay [1] (31 g ai/ha Postemergence) worked out at 40; in assay [1] (125 g ai/ha Postemergence) it was 80. The entries for the “Goosegrass plant response rating” value in assay [2] (31 g ai/ha Postemergence) and in assay [2] (125 g ai/ha Postemergence) were 70 and 90, respectively. In addition, the “Plant response rating … Wild” value in assay [3] (31 g ai/ha Preemergence) turned out to be 80; in assay [3] (125 g ai/ha Preemergence) it was 100. Further, the “Foxtail, Giant plant response rating” value in assay [4] (31 g ai/ha Postemergence) worked out at 10; in assay [4] (125 g ai/ha Postemergence), 90. The “Plant response rating … Wheat” value is 40 in assay [5] (31 g ai/ha Preemergence) and 100 in assay [5] (125 g ai/ha Preemergence). In addition, the “Plant response rating (0 to 100 scale), Goosegrass” value in assay [6] (31 g ai/ha Preemergence) was determined as 90; in assay [6] (125 g ai/ha Preemergence), 100. Moreover, the “Kochia plant response rating” value was determined as 70 with kochia (Bassia scoparia) (31 g ai/ha Postemergence) and 80 with kochia (Bassia scoparia) (125 g ai/ha Postemergence).
For the compound `CC#CCOC1CCN(c2cc(NS(=O)(=O)C(F)(F)F)c(C)cc2C)C1=O` (centres unmarked) [Compound 60], the entries for the “Pigweed, Palmer plant response rating” value in assay [1] (31 g ai/ha Postemergence) and in assay [1] (125 g ai/ha Postemergence) were 60 and 90, respectively. The figures for the “Goosegrass plant response rating” value in assay [2] (31 g ai/ha Postemergence) and in assay [2] (125 g ai/ha Postemergence) were 80 and 90, respectively. Further, the “Plant response rating … Wild” value was found to be 90 in assay [3] (31 g ai/ha Preemergence) and 100 in assay [3] (125 g ai/ha Preemergence). The “Foxtail, Giant plant response rating” value in assay [4] (31 g ai/ha Postemergence) came to 80; in assay [4] (125 g ai/ha Postemergence), 90. The entries for the “Plant response rating … Wheat” value in assay [5] (31 g ai/ha Preemergence) and in assay [5] (125 g ai/ha Preemergence) were 40 and 100, respectively. Also, the “Plant response rating (0 to 100 scale), Goosegrass” value in assay [6] (31 g ai/ha Preemergence) was 90; in assay [6] (125 g ai/ha Preemergence), 100. Also, the “Kochia plant response rating” value amounted to 100 with kochia (Bassia scoparia) (31 g ai/ha Postemergence) and 90 in the assay with kochia (Bassia scoparia) (125 g ai/ha Postemergence).
For `Cc1cc(C)c(N2CCC(OCc3ccccc3)C2=O)cc1NS(=O)(=O)C(F)(F)F` (centres unmarked) [Compound 61], the “Pigweed, Palmer plant response rating” value came to 50 in assay [1] (31 g ai/ha Postemergence) and 80 in assay [1] (125 g ai/ha Postemergence). Further, the “Goosegrass plant response rating” value in assay [2] (31 g ai/ha Postemergence) was 40; in assay [2] (125 g ai/ha Postemergence), 90. The “Plant response rating … Wild” value is 50 in assay [3] (31 g ai/ha Preemergence) and 90 in assay [3] (125 g ai/ha Preemergence). Besides, the “Foxtail, Giant plant response rating” value in assay [4] (31 g ai/ha Postemergence) was 20; in assay [4] (125 g ai/ha Postemergence) it was 50. The results for the “Plant response rating … Wheat” value in assay [5] (31 g ai/ha Preemergence) and in assay [5] (125 g ai/ha Preemergence) were 30 and 100, respectively. Besides, the “Plant response rating (0 to 100 scale), Goosegrass” value in assay [6] (31 g ai/ha Preemergence) and in assay [6] (125 g ai/ha Preemergence) was 100 throughout. In addition, the “Kochia plant response rating” value was 60 in the assay on kochia (Bassia scoparia) (31 g ai/ha Postemergence) and 90 in the assay on kochia (Bassia scoparia) (125 g ai/ha Postemergence).
As to `Cc1c(NS(=O)(=O)C(F)(F)F)cc(N2CCC(OCC3CC3)C2=O)c(C)c1F` (centres unmarked) [Compound 63], the “Pigweed, Palmer plant response rating” value was found to be 70 in assay [1] (31 g ai/ha Postemergence) and 90 in assay [1] (125 g ai/ha Postemergence). The “Goosegrass plant response rating” value was 0 in assay [2] (31 g ai/ha Postemergence) and 90 in assay [2] (125 g ai/ha Postemergence). Moreover, the “Plant response rating … Wild” value in assay [3] (31 g ai/ha Preemergence) came to 70; in assay [3] (125 g ai/ha Preemergence) it was 100. Also, the “Foxtail, Giant plant response rating” value in assay [4] (31 g ai/ha Postemergence) is given as 0; in assay [4] (125 g ai/ha Postemergence) it was 30. The “Plant response rating … Wheat” value in assay [5] (31 g ai/ha Preemergence) came to 80; in assay [5] (125 g ai/ha Preemergence), 100. The “Plant response rating (0 to 100 scale), Goosegrass” value in assay [6] (31 g ai/ha Preemergence) and in assay [6] (125 g ai/ha Preemergence) was 100 in each case. Besides, the “Kochia plant response rating” value with kochia (Bassia scoparia) (31 g ai/ha Postemergence) was 80; with kochia (Bassia scoparia) (125 g ai/ha Postemergence) it was 90.
Consider `Cc1c(NS(=O)(=O)C(F)(F)F)cc(N2CCC(OCC3CCC3)C2=O)c(C)c1F` (centres unmarked) [Compound 64], for which the “Pigweed, Palmer plant response rating” value in assay [1] (31 g ai/ha Postemergence) was determined as 60; in assay [1] (125 g ai/ha Postemergence), 70. Moreover, the results for the “Goosegrass plant response rating” value in assay [2] (31 g ai/ha Postemergence) and in assay [2] (125 g ai/ha Postemergence) were 30 and 70, respectively. Further, the figures for the “Plant response rating … Wild” value in assay [3] (31 g ai/ha Preemergence) and in assay [3] (125 g ai/ha Preemergence) were 20 and 90, respectively. Moreover, the “Foxtail, Giant plant response rating” value in assay [4] (31 g ai/ha Postemergence) amounted to 0; in assay [4] (125 g ai/ha Postemergence) it was 20. For the same compound, the “Plant response rating … Wheat” value in assay [5] (31 g ai/ha Preemergence) turned out to be 20; in assay [5] (125 g ai/ha Preemergence), 70. For the same compound, the “Plant response rating (0 to 100 scale), Goosegrass” value in assay [6] (31 g ai/ha Preemergence) amounted to 70; in assay [6] (125 g ai/ha Preemergence), 100. For the same compound, the entries for the “Kochia plant response rating” value in the assay with kochia (Bassia scoparia) (31 g ai/ha Postemergence) and with kochia (Bassia scoparia) (125 g ai/ha Postemergence) were 50 and 100, respectively.
